The results in this text go back to patent publication US20140105959A1, “METHOD AND DEVICE FOR REDUCING DERMAL FILLER ADVERSE EVENTS” (ALLERGAN, INC., priority 2012, published 2014).

Structures are written as SMILES.

One experiment deals with nasolabial folds. As to the kind of experiment: visible bruising after Juvederm XC injection into patch-treated nasolabial folds of a patient. It counts as in vivo, human. To be noted: microneedle roller pretreatment, cotton-based patch about 300 ppm phenylephrine for about 7 minutes, then 0.6 cc Juvederm XC per nasolabial fold.
Experiment [1] deals with hairless rat skin. As to the kind of experiment: vasoconstriction in hairless rat skin after topical phenylephrine patch. It counts as in vivo. An excerpt:
In certain embodiments, mechanisms are provided that are effective to actively enhance transport of vasoactive drugs across the skin (mechanisms will be referred to as “enhancers” in the rest of the invention). For example, in one embodiment of the invention, the method includes the step of treating a skin site selected for dermal filler administration with a mechanism effective to enhance drug delivery across the skin prior to treating the skin site with the device or compound containing the active agent effective to reduce or ameliorate the adverse event. For example, the mechanism, hereinafter sometimes referred to as “mechanical enhancer” may comprise a mechanical device capable of gently stripping of the superficial skin layers from the epidermis. For example, the mechanism may be an adhesive tape or abrasive surface. It has been discovered that use of such mechanisms increase phenylephrine diffusion through the skin and result in significant reduction in skin's vasoconstriction time (e.g. 5 minutes) by phenylephrine using the same patch device. In certain embodiments, it might be useful to apply the mechanism, enhancement device, after filler administration, preferably in devices where the vasoactive drug may interfere with safety and/or potency of fillers. […]

In experiment [2] the test system is hairless rat skin. As to the kind of experiment: bruising after dermal filler administration at patch-treated versus untreated rat skin. To be noted: cotton fabric patch, phenylephrine 400 ppm, 15 minutes, then dermal filler, compared with adjacent untreated skin. The format is in vivo.

Description for nasolabial folds: Their physician applies, along both nasolabial folds, a tool having a rolling head with numerous microneedles to penetrate the dermis with numerous punctures about one millimeter in depth. They then apply a phenylephrine-containing cotton-based patch, formulated to about 300 ppm phenylephrine, in accordance with the invention, on the skin along the left nasolabial fold, in a way that covers the entire injection site. The patch is left in place for about 7 minutes. The physician removes the patch and then carefully injects 0.6 cc of a HA-based dermal filler, specifically, Juvederm® XC, (available from Allergan, Inc., Irvine, Calif.) into the phenylephrine-treated dermis just beneath the fold line, using a 27 gauge needle. The treatment procedure is repeated for the right nasolabial fold, for example, using another identical patch and another 0.6 cc Juvederm® XC.

Consider `CNC[C@H](O)c1cccc(O)c1` [phenylephrine], for which, in the experiment on nasolabial folds (one week), the “bruising one week after the procedure” value was “no bruising, nor red marks”. Besides, the “visible bruising three days after the treatment procedure” value in the experiment with nasolabial folds (three days) is “does not notice any visible bruising”. Further, the “vasoconstriction in skin regions directly underneath the patch” value in the experiment on hairless rat skin [1] (cotton fabric patch, phenylephrine 400 ppm, removed after 15 minutes, hairless rat) is “significant vasoconstriction”. Besides, the “time to release, diffuse and cause significant vasoconstriction” value with hairless rat skin [1] (phenylephrine formulated at 100 ppm in a topically placed cotton gauze, hairless rat skin) is “about 10 minutes”. Further, the “skin's vasoconstriction time” value with hairless rat skin [1] (same patch device, after mechanical enhancer (adhesive tape or abrasive surface stripping superficial skin layers)) is 5 min. The “bruising at the vasoconstricted skin site, particularly along the line of injection” value in the experiment with hairless rat skin [2] is reported as “lower than at the untreated skin site”.
